Laboratory results published in ChEMBL document CHEMBL4138182, “Aminomethylation of heliomycin: Preparation and anticancer characterization of the first series of semi-synthetic derivatives” (Eur J Med Chem, 2018).
The source made the active and inactive calls. The calls are words filed in the database; no cut-off is given here.

Test system: not listed separately
Test: Selectivity index, ratio of IC50 for HMEC1 cells to IC50 for p53 deficient human HCT116 cells
Assay type: toxicity
Conditions: HMEC1 cells and p53 deficient HCT116 cells, read-out: Ratio IC50

| Compound | selectivity ratio |
| --- | --- |
| CCOC(=O)[C@@H]1CCCN1Cc1c(O)c2c3c(c1O)C(=O)C(C)(C)c1cc(O)c4c(C)cc(O)c(c4c1-3)C2=O | 2 to 50 |

Test system: not listed separately
Test: Selectivity index, ratio of IC50 for HMEC1 cells to IC50 for human CEM cells
Assay type: toxicity
Conditions: HMEC1 cells and CEM cells, read-out: Ratio IC50

| Compound | selectivity ratio |
| --- | --- |
| CCOC(=O)[C@@H]1CCCN1Cc1c(O)c2c3c(c1O)C(=O)C(C)(C)c1cc(O)c4c(C)cc(O)c(c4c1-3)C2=O | 2 to 50 |

Test system: not listed separately
Test: Selectivity index, ratio of IC50 for HMEC1 cells to IC50 for human HeLa cells
Assay type: toxicity
Conditions: HMEC1 cells and HeLa cells, read-out: Ratio IC50

| Compound | selectivity ratio |
| --- | --- |
| CCOC(=O)[C@@H]1CCCN1Cc1c(O)c2c3c(c1O)C(=O)C(C)(C)c1cc(O)c4c(C)cc(O)c(c4c1-3)C2=O | 2 to 50 |

Test system: not listed separately
Test: Selectivity index, ratio of IC50 for HMEC1 cells to IC50 for human K562/4 cells
Assay type: toxicity
Conditions: HMEC1 cells and K562/4 cells, read-out: Ratio IC50

| Compound | selectivity ratio |
| --- | --- |
| CCOC(=O)[C@@H]1CCCN1Cc1c(O)c2c3c(c1O)C(=O)C(C)(C)c1cc(O)c4c(C)cc(O)c(c4c1-3)C2=O | 2 to 50 |

Test system: Calf thymus DNA
Test: Binding affinity to calf thymus DNA by visible spectroscopic method
Assay type: nucleic-acid assay
Conditions: Bos taurus

| Compound | Kb [×10⁶ /M] |
| --- | --- |
| COc1cccc2c1C(=O)c1c(O)c3c(c(O)c1C2=O)C[C@@](O)(C(=O)CO)C[C@@H]3O[C@H]1C[C@H](N)[C@H](O)[C@H](C)O1 | 2 |

Biological target: T1, DNA topoisomerase 1 (Homo sapiens) (UniProt P11387)
T1 sequence (whole entry): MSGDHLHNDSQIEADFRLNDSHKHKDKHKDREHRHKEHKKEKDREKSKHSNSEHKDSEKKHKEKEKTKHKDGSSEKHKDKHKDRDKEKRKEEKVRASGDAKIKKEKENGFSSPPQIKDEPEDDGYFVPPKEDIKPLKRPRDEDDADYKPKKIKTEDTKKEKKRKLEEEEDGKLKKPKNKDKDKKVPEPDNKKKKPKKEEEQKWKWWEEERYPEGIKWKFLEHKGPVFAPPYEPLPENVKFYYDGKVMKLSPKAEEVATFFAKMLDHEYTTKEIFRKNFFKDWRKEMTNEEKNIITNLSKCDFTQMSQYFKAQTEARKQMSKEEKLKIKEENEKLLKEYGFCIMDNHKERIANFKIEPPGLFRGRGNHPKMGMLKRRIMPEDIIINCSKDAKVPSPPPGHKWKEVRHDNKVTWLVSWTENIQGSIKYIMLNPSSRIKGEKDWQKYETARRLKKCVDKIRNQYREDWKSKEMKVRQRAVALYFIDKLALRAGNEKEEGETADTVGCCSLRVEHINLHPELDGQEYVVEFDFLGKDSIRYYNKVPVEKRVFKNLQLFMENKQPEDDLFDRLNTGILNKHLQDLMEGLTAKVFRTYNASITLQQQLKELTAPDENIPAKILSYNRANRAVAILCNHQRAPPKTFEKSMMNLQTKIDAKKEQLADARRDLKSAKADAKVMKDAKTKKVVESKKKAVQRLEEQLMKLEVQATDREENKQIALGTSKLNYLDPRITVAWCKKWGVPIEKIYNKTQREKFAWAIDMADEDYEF
Test: Inhibition of human DNA topoisomerase 1 assessed as decrease in relaxation of pBR322 at <= 20 uM after 30 to 40 mins by agarose gel electrophoresis
Conditions: not given

| Compound | Topoisomerase 1 inhibition (active/inactive) |
| --- | --- |
| CCOC(=O)[C@@H]1CCCN1Cc1c(O)c2c3c(c1O)C(=O)C(C)(C)c1cc(O)c4c(C)cc(O)c(c4c1-3)C2=O | Active |

Test system: not listed separately
Test: Selectivity index, ratio of IC50 for HMEC1 cells to IC50 for human K562 cells
Assay type: toxicity
Conditions: HMEC1 cells and K562 cells, read-out: Ratio IC50

| Compound | selectivity ratio |
| --- | --- |
| CCOC(=O)[C@@H]1CCCN1Cc1c(O)c2c3c(c1O)C(=O)C(C)(C)c1cc(O)c4c(C)cc(O)c(c4c1-3)C2=O | 2 to 50 |

Test system: not listed separately
Test: Antiproliferative activity against human K562/4 cells after 72 hrs by MTT assay
Assay type: functional, cell-based
Conditions: K562/4, 72 h

| Compound | IC50 [nM] |
| --- | --- |
| Cc1cc(O)c2c3c4c(cc(O)c13)C(C)(C)C(=O)c1c(O)c(CN3CCNCC3)c(O)c(c1-4)C2=O | 5800 |
| Cc1cc(O)c2c3c4c(cc(O)c13)C(C)(C)C(=O)c1c(O)c(CN3CCC(N)C3)c(O)c(c1-4)C2=O (stereo unspecified) | 4500 |
| CCOC(=O)[C@@H]1CCCN1Cc1c(O)c2c3c(c1O)C(=O)C(C)(C)c1cc(O)c4c(C)cc(O)c(c4c1-3)C2=O | 1500 |

Test system: HeLa
Test: Antiproliferative activity against human HeLa cells after 72 hrs by MTT assay
Assay type: functional, cell-based
Conditions: not given

| Compound | IC50 [nM] |
| --- | --- |
| Cc1cc(O)c2c3c4c(cc(O)c13)C(C)(C)C(=O)c1c(O)c(CN3CCNCC3)c(O)c(c1-4)C2=O | 5400 |
| Cc1cc(O)c2c3c4c(cc(O)c13)C(C)(C)C(=O)c1c(O)c(CN3CCC(N)C3)c(O)c(c1-4)C2=O (stereo unspecified) | 2600 |
| CCOC(=O)[C@@H]1CCCN1Cc1c(O)c2c3c(c1O)C(=O)C(C)(C)c1cc(O)c4c(C)cc(O)c(c4c1-3)C2=O | 1300 |

Test system: not listed separately
Test: Selectivity index, ratio of IC50 for HMEC1 cells to IC50 for mouse L1210 cells
Assay type: toxicity
Conditions: HMEC1 cells and L1210 cells, read-out: Ratio IC50

| Compound | selectivity ratio |
| --- | --- |
| CCOC(=O)[C@@H]1CCCN1Cc1c(O)c2c3c(c1O)C(=O)C(C)(C)c1cc(O)c4c(C)cc(O)c(c4c1-3)C2=O | 2 to 50 |

Test system: K562
Test: Antiproliferative activity against human K562 cells after 72 hrs by MTT assay
Assay type: functional, cell-based
Conditions: K562, 72 h

| Compound | IC50 [nM] |
| --- | --- |
| Cc1cc(O)c2c3c4c(cc(O)c13)C(C)(C)C(=O)c1c(O)c(CN3CCNCC3)c(O)c(c1-4)C2=O | 2500 |
| Cc1cc(O)c2c3c4c(cc(O)c13)C(C)(C)C(=O)c1c(O)c(CN3CCC(N)C3)c(O)c(c1-4)C2=O (stereo unspecified) | 1500 |
| CCOC(=O)[C@@H]1CCCN1Cc1c(O)c2c3c(c1O)C(=O)C(C)(C)c1cc(O)c4c(C)cc(O)c(c4c1-3)C2=O | 2200 |

Test system: HCT-116
Test: Antiproliferative activity against human HCT116 cells after 72 hrs by MTT assay
Assay type: functional, cell-based
Conditions: HCT-116, 72 h

| Compound | IC50 [nM] |
| --- | --- |
| Cc1cc(O)c2c3c4c(cc(O)c13)C(C)(C)C(=O)c1c(O)c(CN3CCNCC3)c(O)c(c1-4)C2=O | 4800 |
| Cc1cc(O)c2c3c4c(cc(O)c13)C(C)(C)C(=O)c1c(O)c(CN3CCC(N)C3)c(O)c(c1-4)C2=O (stereo unspecified) | 3600 |
| CCOC(=O)[C@@H]1CCCN1Cc1c(O)c2c3c(c1O)C(=O)C(C)(C)c1cc(O)c4c(C)cc(O)c(c4c1-3)C2=O | 700 |

Test system: L1210
Test: Antiproliferative activity against mouse L1210 cells after 72 hrs by MTT assay
Assay type: functional, cell-based
Conditions: L1210, 72 h

| Compound | IC50 [nM] |
| --- | --- |
| Cc1cc(O)c2c3c4c(cc(O)c13)C(C)(C)C(=O)c1c(O)c(CN3CCNCC3)c(O)c(c1-4)C2=O | 4200 |
| Cc1cc(O)c2c3c4c(cc(O)c13)C(C)(C)C(=O)c1c(O)c(CN3CCC(N)C3)c(O)c(c1-4)C2=O (stereo unspecified) | 2900 |
| CCOC(=O)[C@@H]1CCCN1Cc1c(O)c2c3c(c1O)C(=O)C(C)(C)c1cc(O)c4c(C)cc(O)c(c4c1-3)C2=O | 3500 |

Test system: CCRF-CEM
Test: Antiproliferative activity against human CEM cells after 72 hrs by MTT assay
Assay type: functional, cell-based
Conditions: not given

| Compound | IC50 [nM] |
| --- | --- |
| Cc1cc(O)c2c3c4c(cc(O)c13)C(C)(C)C(=O)c1c(O)c(CN3CCNCC3)c(O)c(c1-4)C2=O | 5600 |
| Cc1cc(O)c2c3c4c(cc(O)c13)C(C)(C)C(=O)c1c(O)c(CN3CCC(N)C3)c(O)c(c1-4)C2=O (stereo unspecified) | 3400 |
| CCOC(=O)[C@@H]1CCCN1Cc1c(O)c2c3c(c1O)C(=O)C(C)(C)c1cc(O)c4c(C)cc(O)c(c4c1-3)C2=O | 1200 |

Test system: not listed separately
Test: Selectivity index, ratio of IC50 for HMEC1 cells to IC50 for human HCT116 cells
Assay type: toxicity
Conditions: HMEC1 cells and HCT116 cells, read-out: Ratio IC50

| Compound | selectivity ratio |
| --- | --- |
| CCOC(=O)[C@@H]1CCCN1Cc1c(O)c2c3c(c1O)C(=O)C(C)(C)c1cc(O)c4c(C)cc(O)c(c4c1-3)C2=O | 2 to 50 |

Test system: HMEC-1
Test: Antiproliferative activity against HMEC1 cells after 72 hrs by MTT assay
Assay type: cell-based
Conditions: Homo sapiens, HMEC-1, 72 h

| Compound | IC50 [nM] |
| --- | --- |
| CCOC(=O)[C@@H]1CCCN1Cc1c(O)c2c3c(c1O)C(=O)C(C)(C)c1cc(O)c4c(C)cc(O)c(c4c1-3)C2=O | 5900 |

Test system: HCT-116
Test: Antiproliferative activity against p53 deficient human HCT116 cells after 72 hrs by MTT assay
Assay type: functional, cell-based
Conditions: HCT-116, 72 h

| Compound | IC50 [nM] |
| --- | --- |
| Cc1cc(O)c2c3c4c(cc(O)c13)C(C)(C)C(=O)c1c(O)c(CN3CCNCC3)c(O)c(c1-4)C2=O | 1800 |
| Cc1cc(O)c2c3c4c(cc(O)c13)C(C)(C)C(=O)c1c(O)c(CN3CCC(N)C3)c(O)c(c1-4)C2=O (stereo unspecified) | 1100 |
| CCOC(=O)[C@@H]1CCCN1Cc1c(O)c2c3c(c1O)C(=O)C(C)(C)c1cc(O)c4c(C)cc(O)c(c4c1-3)C2=O | 1000 |
